In data set [1] the target is serotonin transporter (SERT) (Homo sapiens, UniProt P31645). Briefly: Radioreceptor assay, inhibition of (3H)citalopram binding to the serotonin transporter. On the procedure:
The serotonin transporter is also detectable in the striatum, the brain region with the highest density of dopamine neurons and in brain regions surrounding the striatum. […] Therefore, a measure of probe affinity of the serotonin transport is conducted by assays paralleling the dopamine transporter assays.
(§1) ^3H-WIN 35,428 (^3H-CFT, 2β-carbomethoxy-3β-(4-fluorophenyl)-N-^3H-methyltropane, 79.4-87.0 Ci/mmol) and ^3H-citalopram (86.8 Ci/mmol) is purchased from DuPont-New England Nuclear (Boston, Mass.). HPLC analyses are carried out on a Waters 510 system with detection at 254 nm on a Chiralcel OC column (flow rate: 1 mL/min).

The target in data set [2] is dopamine transporter (DAT) (Homo sapiens, UniProt Q01959). Briefly: Radioreceptor assay, inhibition of (3H)WIN 35,428 binding to the dopamine transporter.
Sequence of dopamine transporter (DAT) (Q01959 whole entry, species assumed): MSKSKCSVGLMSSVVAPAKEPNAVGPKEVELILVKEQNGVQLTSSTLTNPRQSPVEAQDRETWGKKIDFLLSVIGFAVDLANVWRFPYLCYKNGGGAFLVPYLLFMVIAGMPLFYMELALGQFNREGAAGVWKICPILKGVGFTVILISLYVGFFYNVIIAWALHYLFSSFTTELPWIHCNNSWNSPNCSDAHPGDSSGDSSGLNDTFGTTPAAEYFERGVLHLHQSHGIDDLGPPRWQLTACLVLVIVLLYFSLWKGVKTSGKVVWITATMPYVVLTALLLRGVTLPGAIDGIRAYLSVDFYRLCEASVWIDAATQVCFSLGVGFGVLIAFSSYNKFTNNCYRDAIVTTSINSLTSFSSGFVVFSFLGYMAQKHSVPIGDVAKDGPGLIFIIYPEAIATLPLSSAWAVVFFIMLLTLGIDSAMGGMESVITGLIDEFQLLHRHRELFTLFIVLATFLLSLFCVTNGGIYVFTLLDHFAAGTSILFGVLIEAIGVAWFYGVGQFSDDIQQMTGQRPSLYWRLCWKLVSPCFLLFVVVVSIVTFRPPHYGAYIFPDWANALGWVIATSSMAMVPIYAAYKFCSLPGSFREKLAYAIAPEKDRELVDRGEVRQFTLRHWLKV
Description: Dysfunction of dopamine neurons has been implicated in several neuropsychiatric diseases. Imaging of the dopamine neurons offers important clinical information relevant to diagnosis and therapeutic treatments. Dopamine neurons produce dopamine, release the neurotransmitter and remove the released dopamine with a dopamine transporter protein. Compounds that bind to the dopamine transporter are effective measures of dopamine neurons and can be transformed into imaging agents for PET and for SPECT imaging (see, e.g., Example 70, infra, for use of PET imaging). In identifying a suitable compound for the dopamine transporter, an essential first step is to measure the affinity and selectivity of a candidate at the dopamine transporter. The affinity can be measured by conducting radioreceptor assays. A radiolabeled marker for the transporter, e.g., (^3H)WIN 35,428, is incubated with the unlabeled candidate and a source of the transporter, usually brain striatum. The effect of various concentrations of the candidate on inhibiting (^3H)WIN 35,428 binding is quantified. The concentration of the compound that inhibits 50% of (^3H)WIN 35,428 bound to the transporter (IC50 value) is used as a measure of its affinity for the transporter. A suitable range of concentrations of the candidate typically is about 1 nM up to about 100 nM, more preferably 1 to 10 nM.
as §1

In the next data set the target is T1, dopamine transporter (Macaca mulatta, UniProt Q7JHP9).
T1 construct: occupy the dopamine transporter in living brain; from tissue; host or cells: living brain of rhesus monkeys (in vivo PET)
T1 sequence (Q7JHP9 1-620): as the sequence (Q01959 whole entry, species assumed) above, with V24M, I137V, P194S, S198G, D200N, S201G, S202P counted along it
Briefly: Dopamine transporter occupancy by PET imaging with [11C]CFT. In kind it is in vivo, Rhesus monkeys. Particulars: for Brain entry and occupancy of DAT sites (in words): living brain, PET imaging, cerebellum as the negative control; for [11C]CFT with Compound (binding potential) / % Occupancy / % Occupancy, cerebellum levels considered background: rhesus monkey; for [11C]CFT with Compound (binding potential): compound intravenously, PET one hour after administration; for % Occupancy / % Occupancy, cerebellum levels considered background: i.v., one hour; for % Occupancy: from reduced [11C]CFT binding potential vs baseline; for % Occupancy, cerebellum levels considered background: reduced to levels of cerebellum = full occupancy. As for the experimental part:
As the compounds of the invention are high affinity ligands for the dopamine transporter, we determined whether they occupy the dopamine transporter in living brain within 1 hour of administration. To monitor occupancy of the dopamine transporter, PET imaging was conducted with the high affinity dopamine transporter probe [11C]CFT ([11C]WIN 35,428). Rhesus monkeys were anesthetized with ketamine and xylazine and an indwelling intravenous catheter was placed in a leg vein. DAT density (binding potential) was acquired with [11C]CFT to obtain baseline levels. Immediately following completion of the imaging session, monkeys were administered the test compound intravenously via the indwelling catheter and PET imaging was conducted one hour after administration. Imaging data from the pre- and post-drug session were compared and occupancy was calculated on the basis of reduced [11C]CFT binding potential one hour or longer after administration of the compound. The following table (Table 1) summarizes pilot data from this study.

Structures can show the parent of a compound that is named as a salt. Where two headings read alike, the source gives them in different places. Marks after values point to notes of the source that are not given here.

Sequence of serotonin transporter (SERT) (P31645 whole entry, species assumed): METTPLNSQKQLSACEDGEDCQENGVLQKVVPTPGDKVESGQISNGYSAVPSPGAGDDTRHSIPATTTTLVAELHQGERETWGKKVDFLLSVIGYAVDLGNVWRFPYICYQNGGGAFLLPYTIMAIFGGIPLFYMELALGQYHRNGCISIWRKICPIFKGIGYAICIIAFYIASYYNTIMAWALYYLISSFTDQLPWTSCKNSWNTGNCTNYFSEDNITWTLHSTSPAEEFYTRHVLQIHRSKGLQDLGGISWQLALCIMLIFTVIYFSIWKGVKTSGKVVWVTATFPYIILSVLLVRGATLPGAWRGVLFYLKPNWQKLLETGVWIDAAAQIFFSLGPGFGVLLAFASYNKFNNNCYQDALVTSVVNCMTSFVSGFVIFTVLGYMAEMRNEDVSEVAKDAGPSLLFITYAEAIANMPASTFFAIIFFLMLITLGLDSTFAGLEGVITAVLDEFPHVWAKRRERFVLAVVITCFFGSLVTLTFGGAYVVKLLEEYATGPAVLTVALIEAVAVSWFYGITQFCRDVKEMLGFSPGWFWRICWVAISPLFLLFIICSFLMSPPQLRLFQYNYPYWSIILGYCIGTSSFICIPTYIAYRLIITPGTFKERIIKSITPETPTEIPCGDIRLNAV

With `CCC[C@@H](C(=O)c1ccc(C)cc1)N1CCCC1` [Compound O-2442, (2S)-2-Pyrrolidin-1-yl-1-p-tolyl-pentan-1-one], the IC50 in data set [1] is more than 4000 nM. The same molecule returned an IC50 in data set [2] of 3 nM. Further, the “DAT inhibition potency, comparison of enantiomers” value in data set [2] (2S versus 2R enantiomer) is reported as “more potent DAT inhibitor than the 2R-enantiomer”. For the same molecule, on dopamine transporter, the “Brain entry and occupancy of DAT sites (in words)” value is “most efficient in entering the brain and occupying the majority of DAT sites”; the “[11C]CFT with Compound (binding potential)” value (“[11C]CFT with Compound” below) was 0.6112; the “% Occupancy” value is 70%; the “% Occupancy, cerebellum levels considered background” value is 100* %.

Consider `C#CCC(C(=O)c1ccc(C)cc1)N1CCCC1` (centres unmarked) (as salt: salt), for which the melting point was 178 °C (dec.).

In the case of `CCCC(C(=O)c1ccc2ccccc2c1)N1CCCC1` (centres unmarked) (as salt: salt), the melting point is 221 to 223 °C (dec.).

For `CCCC(C(=O)c1ccc(C(F)(F)F)cc1)N1CCCC1` (centres unmarked) (as salt: salt), the melting point is 228 °C (dec.).

Consider `CCCC(C(=O)c1ccc(Cl)c(Cl)c1)N1CCCC1` (centres unmarked) [Compound O-2390, 2-Pyrrolidin-1-yl-1-(3,4-Dichloro-phenyl)-pentan-1-one], for which, in data set [2], the IC50 was determined as 8 nM. At dopamine transporter, the “[11C]CFT with Compound” value worked out at 0.5898 and the “% Occupancy” value was 56%.

Take `CCCC(C(=O)c1cccc(I)c1)N1CCCC1` (centres unmarked) (as salt: salt): the melting point was 203 °C (dec.).

Consider `CCC(CC(=O)c1ccc(Cl)c(Cl)c1)N1CCCC1` (centres unmarked) (as salt: salt), for which the melting point is 104 to 107 °C (dec.).

On to `CCCC(C(=O)c1ccc(OC)c(OC)c1)N1CCCC1` (centres unmarked) (as salt: salt), for which the melting point was 177 °C (dec.).

`CCCC(C(=O)c1ccccc1)N1CCCC1` (centres unmarked) [Compound O-2387, 2-Pyrrolidin-1-yl-phenyl-pentan-1-one]: the IC50 in data set [2] (affinity column of the PET occupancy table, read-out: DAT Affinity) is 13 nM. Moreover, on dopamine transporter, the “[11C]CFT with Compound” value was determined as 0.7885 and the “% Occupancy” value is on record as 64%.

Turning to `CCC(C(=O)c1ccc(Cl)c(Cl)c1)N1CCCC1` (centres unmarked) (as salt: salt), the melting point is 211 °C (dec.).

Turning to `CCCC(N1CCCC1)C(O)(Cc1ccccc1)c1ccc(C)cc1` (centres unmarked) (as salt: salt), the melting point was 211 °C (dec.).

`CC#Cc1ccc(C(=O)C(CCC)N2CCCC2)cc1` (centres unmarked) (as salt: salt): the melting point is 231 °C (dec.).

The molecule `CCCC(C(=O)c1ccc(Br)cc1)N1CCCC1` (centres unmarked) [Compound O-2419, 2-Pyrrolidin-1-yl-1-(4′-bromo-phenyl)-pentan-1-one] returned an IC50 in data set [2] of 8 nM. Further, at dopamine transporter, the “[11C]CFT with Compound” value is 1.6025 and the “% Occupancy” value was 33%.

For `CCC(CC(=O)c1ccc(C)cc1)N1CCCC1` (centres unmarked) (as salt: salt), the melting point is 97 °C (dec.).

Consider `CCCC(C(=O)c1ccc(CO)cc1)N1CCCC1` (centres unmarked) (as salt: salt), for which the melting point was 186 to 187 °C (dec.).

Turning to `CCCC(C(=O)c1ccc(-c2cccs2)cc1)N1CCCC1` (centres unmarked) (as salt: salt), the melting point was 220 °C (dec.).

On to `CCCC(C(=O)c1ccc(F)cc1)N1CCCC1` (centres unmarked) (as salt: salt), for which the melting point was 218 °C (dec.).

In the case of `Cc1ccc(C(=O)C(CC(C)C)N2CCCC2)cc1` (centres unmarked) (as salt: salt), the melting point is 218 °C (dec.).

In the case of `CCCC(C(=O)c1ccc(C#N)cc1)N1CCCC1` (centres unmarked) (as salt: salt), the melting point is 197 to 199 °C (dec.).

In turn, `CCCC(C(=O)c1ccc(O)c(O)c1)N1CCCC1` (centres unmarked) (as salt: salt) registered a melting point of 181 to 182 °C.

Take `CCCC(C(=O)c1ccc(I)cc1)N1CCCC1` (centres unmarked) (as salt: salt): the melting point is 218 °C (dec.).

As for `CCCC(C(=O)c1cccc(C)c1)N1CCCC1` (centres unmarked) (as salt: salt), the melting point was 166 °C (dec.).

With `CCCC(C(=O)c1ccc(Cl)c(Cl)c1)N1CCCCC1` (centres unmarked) (as salt: salt), the melting point is 202 °C (dec.).

`CCCC(C(=O)c1ccc(C(=O)OC)cc1)N1CCCC1` (centres unmarked) (as salt: salt): the melting point is 202 °C (dec.).

As for `CCCC(C(=O)c1ccc(NC(C)=O)cc1)N1CCCC1` (centres unmarked) (as salt: salt), the melting point was 195 °C (dec.).

On to `CCCC(C(=O)c1ccc([N+](=O)[O-])cc1)N1CCCC1` (centres unmarked) (as salt: salt), for which the melting point is 189 °C (dec.).

`C=CCC(C(=O)c1ccc(C)cc1)N1CCCC1` (centres unmarked) (as salt: salt): the melting point is 196 °C (dec.).

Turning to `CCCC(C(=O)c1ccc(C)cc1)N1CCCC1` (racemic) [Compound O-2371, 2-Pyrrolidin-1-yl-1-p-tolyl-pentan-1-one], in data set [2], the IC50 was 8 nM. In addition, at dopamine transporter, the “Brain entry and occupancy of DAT sites (in words)” value is “most efficient in entering the brain and occupying the majority of DAT sites”; the “[11C]CFT with Compound” value is on record as 0.4551; the “% Occupancy” value was 74%; the “% Occupancy, cerebellum levels considered background” value is recorded as 100* %.

Take `CCCC(C(=O)c1ccc(C)cc1)N1CCCC1` (racemic) (as salt: salt) [Compound O-2371, 2-Pyrrolidin-1-yl-1-p-tolyl-pentan-1-one]: the melting point is 180 °C (dec.).

In the case of `CCCC(C(=O)c1ccc(Br)cc1)N1CCCC1` (centres unmarked) (as salt: salt) [Compound O-2419, 2-Pyrrolidin-1-yl-1-(4′-bromo-phenyl)-pentan-1-one], the melting point is 200 °C (dec.).

Turning to `CCCC(C(=O)c1ccc(Cl)c(Cl)c1)N1CCCC1` (centres unmarked) (as salt: salt) [Compound O-2390, 2-Pyrrolidin-1-yl-1-(3,4-Dichloro-phenyl)-pentan-1-one], the melting point is 195 °C (dec.).

These data come from patent US20080234498A1, “Pyrovalerone Analogues and Therapeutic Uses Thereof” (PRESIDENT AND FELLOW OF HARVARD COLLEGE, priority 2003, published 2008).
